Measurements taken from patent publication US12252524B2, “GIP/GLP1 co-agonist compounds” (Eli Lilly and Company, priority 2018, dated 2025).
Read-outs that look alike come from different tables or passages of the source. Numbered stars: 1 amine (or outer) side, 2 acyl side, 3 side chain; on linkers, the order of the positions; unused ones are H or OH. Square brackets hold non-standard residues; d marks the D form. Side chains are listed from the residue outwards. Peptide text beside a SMILES is read from it. * marks the point of attachment. C18 diacid = O=C(O)CCCCCCCCCCCCCCCCC(=O)*; αMePhe(2-F) = C[C@](N)(Cc1ccccc1F)C(=O)O; γGlu = O=C(O)[C@H](CCC(=O)[*:2])N[*:1]; αMeL = CC(C)C[C@](C)(N)C(=O)O; Orn = NCCC[C@H](N)C(=O)O; AEEA = NCCOCCOCC(=O)O; Aib = CC(C)(N)C(=O)O

Experiments:
in vivo [1] = details: male, cynomolgus monkey, plasma, sc, 50 nmol/kg
Experimental: (§1) Pharmacokinetics in male Cynomolgus Monkeys The pharmacokinetics of select Examples are evaluated following a single subcutaneous administration of 50 nMol/kg to male cynomolgus monkeys. […] Peptide plasma (K3 EDTA) concentrations are determined using a qualified LC/MS method that measured the intact mass of the compound. […] Instruments are combined for LC/MS detection.

[2] = single subcutaneous 50 nMol/kg, male Sprague Dawley rats; mean (SD)
Experimental: (§2) The pharmacokinetics of select Examples are evaluated following a single subcutaneous (SC) administration of 50 nMol/kg (dissolved in PBS, pH 7.4) or single 1 μmol/kg (mixed with 250 mM sodium decanoate (“C10”) and 12 mg/mL soybean trypsin inhibitor (SBTI)) intrajejunal (IJ) administration to male Sprague Dawley rats. […] Pharmacokinetic parameters are calculated using individual plasma concentrations. A qualified LC/MS method that measures the intact mass of the Example is used to determine plasma (K3 EDTA) concentrations. Each Example is tested with an analog peptide as an internal standard. Immunoaffinity based precipitation with anti-GIP/GLP1 antibodies is used to extract each test peptide and analog.

[3] = test system: CD8+ T cell depleted peripheral blood mononuclear cells; test: CD4+ T cell assay for potential clinical immunogenicity; details: for frequency of positive CD+ T cell response (CDI>2.5): CD4+ T cell assay
Experimental: The purpose of this study is to determine the relative potential for clinical immunogenicity of a compound.
CD8+ T cell depleted peripheral blood mononuclear cells are prepared and labeled with Carboxyfluorescein Diacetate Succinimidyl Ester (CFSE, Invitrogen) from a cohort of 10 healthy donors. […] Cultures are incubated for 7 days at 37° C. with 5% CO2. On day 7, samples are analyzed by flow cytometry using High Throughput Sampler (HTS). Data is analyzed using FlowJo® Software (FlowJo, LLC, TreeStar).

human Gcg receptor = biological target: T1, human Gcg receptor (Homo sapiens, UniProt P47871); test: [125I]-Glucagon binding (SPA), human Gcg receptor
T1 construct: expressed in transfected cells; crude membranes
T1 sequence (P47871 26-477): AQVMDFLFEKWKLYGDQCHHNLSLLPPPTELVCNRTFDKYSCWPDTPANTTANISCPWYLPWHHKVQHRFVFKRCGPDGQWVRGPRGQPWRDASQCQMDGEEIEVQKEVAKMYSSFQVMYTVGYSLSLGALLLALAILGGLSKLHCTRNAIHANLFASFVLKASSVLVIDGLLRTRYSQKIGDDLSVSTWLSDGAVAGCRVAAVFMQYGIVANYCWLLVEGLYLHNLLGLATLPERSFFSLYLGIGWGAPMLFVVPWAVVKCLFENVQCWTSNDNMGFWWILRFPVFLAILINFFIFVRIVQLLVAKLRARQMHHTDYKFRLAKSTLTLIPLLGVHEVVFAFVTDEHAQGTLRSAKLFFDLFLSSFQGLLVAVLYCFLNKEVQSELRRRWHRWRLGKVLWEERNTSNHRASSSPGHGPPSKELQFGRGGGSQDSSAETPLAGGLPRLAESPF
Summary of the method: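 Cell pellets were lysed in hypotonic Tris buffer, pH 7.5, homogenized, and spun at low then high speed to give crude membranes. Ki was derived from the fitted IC50.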

[4] = single intrajejunal 1 μmol/kg with 250 mM C10 and 12 mg/mL SBTI, male Sprague Dawley rats; for Cmax/D: mean (SD)
Experimental: as §2

in vivo [5] = details: male, CD-1, mouse, plasma, sc, 200 nmol/kg
Experimental: (§3) The pharmacokinetics of select Examples are evaluated following a single subcutaneous administration of 200 nMol/kg to male CD-1 mice. […] Plasma (K3 EDTA) concentrations are determined using a qualified LC/MS method that measures the intact mass of the Examples. […] Instruments are combined for LC/MS detection.

[6] = biological target: human GLP-1 receptor (GLP-1R) (Homo sapiens, UniProt P43220); test: cAMP pharmacological functional assay in presence of casein, hGLP-1R; format: cell-based
Sequence of human GLP-1 receptor (GLP-1R) (P43220 24-463): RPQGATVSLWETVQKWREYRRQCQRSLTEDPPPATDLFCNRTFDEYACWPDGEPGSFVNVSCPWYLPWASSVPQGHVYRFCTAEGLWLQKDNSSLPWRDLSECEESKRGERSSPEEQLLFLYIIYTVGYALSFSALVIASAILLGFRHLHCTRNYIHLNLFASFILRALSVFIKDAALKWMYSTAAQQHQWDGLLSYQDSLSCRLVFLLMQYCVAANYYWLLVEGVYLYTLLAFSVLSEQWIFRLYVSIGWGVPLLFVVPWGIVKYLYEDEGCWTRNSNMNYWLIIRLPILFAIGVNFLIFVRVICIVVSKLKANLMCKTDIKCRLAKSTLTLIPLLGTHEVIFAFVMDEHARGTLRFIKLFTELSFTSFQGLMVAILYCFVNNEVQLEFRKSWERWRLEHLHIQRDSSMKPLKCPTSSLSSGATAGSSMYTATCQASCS

in vivo [7] = details: male, Sprague Dawley, rat, plasma, other: intrajejunal, 1 umol/kg
Experimental: as §2

[8] = single subcutaneous 200 nMol/kg, male CD-1 mice
Experimental: as §3

[9] = single subcutaneous 50 nMol/kg, male cynomolgus monkeys
Experimental: as §1

in vivo [10] = details: male, Sprague Dawley, rat, plasma, sc, 50 nmol/kg
Experimental: as §2

[11] = Proteolytic stability assay in 1% rat small intestinal fluid (rSIF); details: for percentage of peptide not cleaved using rSIF: 0 min, 1% rSIF, 37° C.; for remaining at 0.05 h, 0.4 mg/mL / remaining at 0.25 h, 0.4 mg/mL / remaining at 1 h, 0.4 mg/mL: rat, real gastrointestinal fluid or homogenate, pH 8
[12] = Examples 10 uM, KLH 0.33 μM, 7 days

Row | Compound | CL/F (in vivo [1]) | Tmax (in vivo [1]) | half-life (in vivo [1]) | AUCINF_D_obs [2] | Cmax/D [2] | frequency of positive CD+ T cell response (CDI>2.5) [3] | % Donor Response (CD4+ T cell response) [3, 12] | Ki (human Gcg receptor) | AUCINF_D_obs [4] | Cmax/D [4] | CL/F (in vivo [5]) | Tmax (in vivo [5]) | half-life (in vivo [5]) | EC50 [6] | Tmax (in vivo [7]) | AUCINF_D_obs [8] | Cmax/D [8] | AUCINF_D_obs [9] | Cmax/D [9] | CL/F (in vivo [10]) | other results
1 | CC[C@H](C)[C@H](NC(=O)[C@H](CC(C)C)NC(=O)[C@H](Cc1ccc(O)cc1)NC(=O)[C@@H](CCC(=O)O)NC(=O)[C@@H](NC(=O)[C@H](Cc1ccccc1)NC(=O)[C@H](CCC(=O)O)NC(=O)C(C)(C)NC(=O)[C@H](CCC(N)=O)NC(=O)[C@H](C)NC(=O)[C@H](CCCCNC(=O)COCCOCCNC(=O)COCCOCCNC(=O)CC[C@H](NC(=O)CCCCCCCCCCCCCCCCC(=O)O)C(=O)O)NC(=O)[C@H](CCCN)NC(=O)[C@H](CC(=O)O)NC(=O)[C@H](CC(C)C)NC(=O)[C@](C)(CC(C)C)NC(=O)[C@@H](NC(=O)[C@H](CO)NC(=O)[C@H](Cc1ccc(O)cc1)NC(=O)[C@H](CC(=O)O)NC(=O)[C@H](CO)NC(=O)[C@@H](NC(=O)[C@](C)(Cc1ccccc1F)NC(=O)[C@@H](NC(=O)CNC(=O)[C@H](CCC(=O)O)NC(=O)C(C)(C)NC(=O)[C@@H](N)Cc1ccc(O)cc1)[C@@H](C)O)[C@@H](C)O)[C@@H](C)CC)[C@@H](C)CC)C(=O)N[C@@H](CCC(=O)O)C(=O)NCC(=O)NCC(=O)N1CCC[C@H]1C(=O)N[C@@H](CO)C(=O)N[C@@H](CO)C(=O)NCC(=O)N[C@@H](C)C(=O)N1CCC[C@H]1C(=O)N1CCC[C@H]1C(=O)N1CCC[C@H]1C(=O)N[C@@H](CO)C(N)=O [Example 2] (H-Y[Aib]EGT[αMePhe(2-F)]TSDYSI[αMeL]LD[Orn]K([AEEA-AEEA-γGlu-C18 diacid])AQ[Aib]EFI[dE]YLIEGGPSSGAPPPS-NH2; N-terminus assumed) | 0.49 mL/h/kg | 24 h | 102 h | 231.7 (9.6) hr*kg*nmol/L/nmol | 5.19 (0.20) kg*nmol/L/nmol | low | 22% | 361 nM | 6.6 hr*kg*nmol/L/nmol | 0.56 (0.40) kg*nmol/L/nmol | 12.9 mL/h/kg | 6 h | 7.55 h | 0.0441 nM | 0.25 h | 77.23 hr*kg*nmol/L/nmol | 5.4 kg*nmol/L/nmol | 2059 hr*kg*nmol/L/nmol | 11.7 kg*nmol/L/nmol | 4.32 mL/h/kg | Median Response Strength in positive donors (CDI) [3, 12]: 3.68 CDI; Tmax (in vivo [10]): 14.7 h; half-life (in vivo [10]): 20.3 h; percentage of peptide not cleaved using rSIF [11]: 100%; remaining at 0.05 h, 0.4 mg/mL [11]: 75.5%; remaining at 0.25 h, 0.4 mg/mL [11]: 18.3%; remaining at 1 h, 0.4 mg/mL [11]: 0.3%
2 | CC[C@H](C)[C@H](NC(=O)[C@H](CC(C)C)NC(=O)[C@H](Cc1ccc(O)cc1)NC(=O)[C@@H](CCC(=O)O)NC(=O)[C@@H](NC(=O)[C@H](Cc1ccccc1)NC(=O)[C@H](CCC(=O)O)NC(=O)C(C)(C)NC(=O)[C@H](CCC(N)=O)NC(=O)[C@H](C)NC(=O)[C@H](CCCCNC(=O)COCCOCCNC(=O)COCCOCCNC(=O)CC[C@H](NC(=O)CCCCCCCCCCCCCCCCCCC(=O)O)C(=O)O)NC(=O)[C@H](CCCN)NC(=O)[C@H](CC(=O)O)NC(=O)[C@H](CC(C)C)NC(=O)[C@](C)(CC(C)C)NC(=O)[C@@H](NC(=O)[C@H](CO)NC(=O)[C@H](Cc1ccc(O)cc1)NC(=O)[C@H](CC(=O)O)NC(=O)[C@H](CO)NC(=O)[C@@H](NC(=O)[C@](C)(Cc1ccccc1F)NC(=O)[C@@H](NC(=O)CNC(=O)[C@H](CCC(=O)O)NC(=O)C(C)(C)NC(=O)[C@@H](N)Cc1ccc(O)cc1)[C@@H](C)O)[C@@H](C)O)[C@@H](C)CC)[C@@H](C)CC)C(=O)N[C@@H](CCC(=O)O)C(=O)NCC(=O)NCC(=O)N1CCC[C@H]1C(=O)N[C@@H](CO)C(=O)N[C@@H](CO)C(=O)NCC(=O)N[C@@H](C)C(=O)N1CCC[C@H]1C(=O)N1CCC[C@H]1C(=O)N1CCC[C@H]1C(=O)N[C@@H](CO)C(N)=O [Example 3] | 0.29 mL/h/kg | 30 h | 181 h | 371.8 (21.8) hr*kg*nmol/L/nmol | 4.71 (0.50) kg*nmol/L/nmol | low | 0% | 242 nM | 8.45 hr*kg*nmol/L/nmol | 0.47 (0.16) kg*nmol/L/nmol | 6.31 mL/h/kg | 6 h | 15 h | 0.0338 nM | 0.33 h | 158.49 hr*kg*nmol/L/nmol | 4.42 kg*nmol/L/nmol | 3420 hr*kg*nmol/L/nmol | 11.38 kg*nmol/L/nmol | 2.7 mL/h/kg | Tmax (in vivo [10]): 21.3 h; half-life (in vivo [10]): 32.1 h; percentage of peptide not cleaved using rSIF [11]: 100%; remaining at 0.05 h, 0.4 mg/mL [11]: 68.8%; remaining at 0.25 h, 0.4 mg/mL [11]: 25.8%; remaining at 1 h, 0.4 mg/mL [11]: 0.3%
